Assay [1] has as its system HIV-1 JR-CSF. Put plainly: HIV-1 mono-infection of CD4+ T-lymphocytes, p24 ELISA. The class given is cell-based. As to conditions: Fig 1A. The source says:
Hemoglobin determinations at every donation protect the donor from phlebotomy-induced anemia. The donor pool also provides investigators with a mix of gender and minority subjects, and recruitment is ongoing for underrepresented minorities. At the present time, the NBDS has 320 active normal blood donors enrolled. Use of the Normal Blood Donor Service is considered “human subjects” research and each investigator who wants to use the service must submit a protocol to the IRB for review and approval. Dr. Gallay has current IRB approval for the human blood obtained for research described in this manuscript. Protocol No: IRB-15-6552. Full name of the IRB is "Scripps IRB". […] Consent from blood donors was obtained verbally. The authors have no access to identifying donor information for these samples.
(In general: In an ELISA, binding on a coated surface is turned into a signal by an enzyme label.)

For assay [2], the system named is HIV-1 JR-CSF. Put plainly: HIV-1/HCV co-culture co-infection, HIV-1 p24 ELISA. The format is cell-based. The method, then:
(§1) CD4+ T-lymphocytes and Huh7.5.1 cells uninfected or infected for 3 h as described above were mixed in a single flask and HIV-1 and HCV replication monitored over a period of 3 weeks as described above.
(§2) HIV-1 target cells—CD4+ T-lymphocytes—and HCV target cells—hepatoma cells—were placed in a single chamber (flask), exposed to both HIV-1 and HCV, and viral replication monitored over time by p24 capsid and core ELISAs, respectively.
(§3) CD4+ T-lymphocytes (A) and Huh7.5.1 cells (B) (0.5 x 10^6 cells) (triplicates) were exposed to HIV-1 JR-CSF and HCV JFH-1. Drugs (2 μM) were added 3 h pre-viral exposure (top panels) or 3 days post-viral exposure (bottom panels). Viral replications were monitored by HIV-1 p24 and HCV core ELISAs. C. CD4+ T-lymphocytes (0.5 x 10^6 cells) (triplicates) were exposed to HIV-1 JR-CSF. Drugs were initially added 3 days post-viral exposure (2 μM) and then daily (0.5 μM). Viral replications were monitored by HIV-1 p24 and HCV core ELISAs. […] D. Model for the HIV-1/HCV co-culture system.

The next assay deals with HCV JFH-1. Put plainly: HIV-1/HCV co-culture co-infection, HCV core ELISA. The format is cell-based. The method, then: as §1, §2, §3
Assay [3] concerns HCV ALV-resistant (D320E/Y321N). Briefly: HCV Luc-Con1 replicon replication in Huh7.5 cells, luciferase. As to conditions: read-out: EC50, inhibition of HCV replication. The class given is cell-based. The method, then: (§4) The GT1b subgenomic firefly luciferase reporter replicon pFK-I389/NS3–3 was provided by R. Bartenschlager. The GT1B subgenomic NS3 (R155Q/A156T), NS5A (L31V, D320E/Y321N, S328P and P313A/P318A), and NS5B (S282T) mutants were created as previously. Half-maximal effective concentration (EC50) measurements were conducted as previously.
(§5) We took advantage of the DAA-resistant HCV genotype 1b Con1 replicons that we previously generated: the NS3 inhibitor-resistant R155Q/A156T NS3, the NS5A inhibitor-resistant L31V NS5A replicon, and the NS5B inhibitor-resistant S282T NS5B replicons. […] EC50 HCV data are expressed in nM whereas EC50 HIV-1 data are expressed in μM.

Assay [4] relates to HCV CsA-sensitive (P313A/P318A). Described as above. The format is cell-based. The following applies: read-out: EC50, inhibition of HCV replication. As to the method:
as §4, §5

Assay [5] relates to HCV CsA-sensitive (S328P). Described as above. The class given is cell-based. As to conditions: read-out: EC50, inhibition of HCV replication. As to the method:
as §4, §5

In assay [6] the test system is HCV NS3-resistant (R155Q/A156T). The assay is described as above. The format is cell-based. The following applies: read-out: EC50, inhibition of HCV replication. The method, then:
as §4, §5

Assay [7] has as its system HCV NS5A-resistant (L31V). The description is as above. The class given is cell-based. The following applies: read-out: EC50, inhibition of HCV replication. As to the method:
as §4, §5

The subject of assay [8] is HCV NS5B-resistant (S282T). The assay is described as above. The format is cell-based. As to conditions: read-out: EC50, inhibition of HCV replication. As to the method:
as §4, §5

The next assay deals with HCV wild-type (Con1b). Described as above. The class given is cell-based. The following applies: 72 h, read-out: EC50, inhibition of HCV replication. As to the method: as §4, §5
Assay [9] has as its target CypA-HIV-1 capsid complex (Homo sapiens, UniProt P62937). Put plainly: CypA-HIV-1 capsid interaction ELISA. As to conditions: 16 h at 4°C. The format is binding. The method, then: (§6) Recombinant GST-CypA, full-length HCV NS5A Con1 (pET-Ub-NS5A Con1-His) and HIV-1 capsid NL4.3 (pET-capsid-His) were expressed and purified as described previously. Inhibition of CypA-HCV NS5A and CypA-HIV-1 capsid interactions by the CypI […] were conducted as we described previously.
(§7) CypI are thought to inhibit the infection of HIV-1 and HCV mostly by preventing CypA-HIV-1 capsid and CypA-HCV NS5A interactions, respectively. The potency of CypI at inhibiting these interactions was determined using an ELISA assay previously developed in our laboratory. For analyzing CypA-HCV NS5A interactions, recombinant NS5A-His was added to GST-CypA-coated wells for 16 h at 4°C in the absence or presence of CypI, followed by detection of captured NS5A-His with anti-His antibodies. A similar assay was used for CypA-HIV-1 interactions except with recombinant His-tagged HIV-1 capsid.

A further assay addresses CypA-HCV NS5A complex (Homo sapiens, UniProt P62937). Briefly: CypA-HCV NS5A interaction ELISA. The following applies: Table 2; NS5A-His on GST-CypA-coated plates, 16 h at 4°C; read-out: IC50, inhibition of NS5A binding to CypA. The method, then:
as §6, §7

The target in the next assay is T1, Human recombinant CypA (Homo sapiens, UniProt P62937).
T1 construct: purchased Atgen
Briefly: α-chymotrypsin-coupled CypA isomerase inhibition assay. The format is biochemical. As to conditions: one representative experiment, mean ± SD; 10 nM CypA, 5°C. The method, then: Succinyl-AAPF-pNA peptide substrate (Sigma) was dissolved to 3.2 mM in dried LiCl/trifluoroethanol. […] All solutions were equilibrated, and reactions conducted at 5°C. Reactions were initiated by mixing 95 μL reaction mix with 5 μL peptide preloaded in multiple wells of 96-well plates and measuring OD405 nm in each well at 6-sec intervals for 6 min using a BMG Polarstar Galaxy plate reader. Data were fitted with Graphpad Prism 6.0 to obtain first-order rate constants.

Setting [10] is: drug treatments begun 3 h before virus addition.
Where [11] appears, read: single dose added 3 days post-infection.
Setting [12] is: Hepatitis C virus, Huh7.5, 72 h.

Like-named read-outs stand apart in the source and are kept apart here. Non-standard residues stand in square brackets, D forms with d. Residues, ends and D or L forms follow the SMILES beside them. NMeThr(4R-Me,4-(CH2)6NHAc) = CN[C@H](C(=O)O)[C@H](O)[C@H](C)CCCCCCNC(C)=O; NMeL = CN[C@@H](CC(C)C)C(=O)O; NMeV = CN[C@H](C(=O)O)C(C)C; dNMeA = CN[C@H](C)C(=O)O; Abu = CC[C@H](N)C(=O)O

As a reminder, the EC50 is the concentration that produces a half-maximal response. As a reminder, the IC50 is the concentration at which inhibition is half-maximal.

Chain of CypA-HIV-1 capsid complex (P62937 whole entry, one chain of several): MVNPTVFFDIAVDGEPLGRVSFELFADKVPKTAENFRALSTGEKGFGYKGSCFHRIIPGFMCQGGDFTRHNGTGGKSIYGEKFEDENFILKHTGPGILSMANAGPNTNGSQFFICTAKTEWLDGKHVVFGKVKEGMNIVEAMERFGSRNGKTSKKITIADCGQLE
T1 sequence (P62937 whole entry): as the sequence (P62937 whole entry, one chain of several) above
Chain of CypA-HCV NS5A complex (P62937 whole entry, one chain of several): as above

As to `C/C=C/C[C@@H](C)[C@@H](O)[C@H]1C(=O)N[C@@H](CC)C(=O)N(C)[C@H](C)C(=O)N(CC)[C@@H](C(C)C)C(=O)N[C@@H](C(C)C)C(=O)N(C)[C@@H](CC(C)C)C(=O)N[C@@H](C)C(=O)N[C@H](C)C(=O)N(C)[C@@H](CC(C)C)C(=O)N(C)[C@@H](CC(C)C)C(=O)N(C)[C@@H](C(C)C)C(=O)N1C` [ALV, Alisporivir], the entries for the “Effect on HIV-1 replication (in words)” value in the assay on HIV-1 JR-CSF [1], with HIV-1 JR-CSF [2] (setting [10]) and in the assay with HIV-1 JR-CSF [2] (setting [11]) were “efficiently blocked viral growth”, “totally prevented HIV-1 replication” and “a small degree of replication occurred within the first 3 days of addition”, respectively. For the same compound, the “Effect on HCV replication (in words)” value is “completely prevented” in the assay with HCV JFH-1 (setting [10]); “immediately and gradually caused a decline in HCV levels” in the assay on HCV JFH-1 (setting [11]). The 50% effective concentration (EC50) in assay [3] (setting [12]) came out at 44.2 ± 5.8 nM; in assay [4] (setting [12]) it was 5.2 ± 0.6 nM; in assay [5] (setting [12]), 5.6 ± 1.1 nM; in [6] (setting [12]), 17.7 ± 1.9 nM; in [7] (setting [12]), 16.5 ± 2.1 nM; in [8] (setting [12]) it was 15.6 ± 2.4 nM. The 50% effective concentration (EC50) in the assay with HCV wild-type (Con1b) (Hepatitis C virus) was 16.6 ± 0.8 nM. Further, the half-inhibitory concentration (IC50) in [9] (IC50, inhibition of CypA-HIV-1 capsid interactions) turned out to be 410 ± 50 nM; in assay [9] (IC50, inhibition of capsid binding to CypA, Table 2, capsid-His on GST-CypA-coated plates) it was 420 ± 110 nM; at CypA-HCV NS5A complex, 420 ± 50 nM; at Human recombinant CypA it was 2.8 ± 0.4 nM.
Consider `CC[C@@H]1NC(=O)[C@H]([C@H](O)[C@H](C)CCCCCCNC(C)=O)N(C)C(=O)[C@H](C(C)C)N(C)C(=O)[C@H](CC(C)C)N(C)C(=O)[C@H](CC(C)C)N(C)C(=O)[C@@H](C)NC(=O)[C@H](C)NC(=O)[C@H](CC(C)C)N(C)C(=O)[C@H](C(C)C)NC(=O)[C@H](CC(C)C)N(C)C(=O)[C@@H](C)N(C)C1=O` [CPI-431-32] (cyclo(A[dA][NMeL][NMeL][NMeV][NMeThr(4R-Me,4-(CH2)6NHAc)][Abu][dNMeA][NMeL]V[NMeL])), for which the “Effect on HIV-1 replication (in words)” value is given as “efficiently blocked viral growth” in the assay with HIV-1 JR-CSF [1], “totally prevented HIV-1 replication” in the assay on HIV-1 JR-CSF [2] (setting [10]) and “halted HIV-1 replication” in the assay on HIV-1 JR-CSF [2] (setting [11]). The “Effect on HCV replication (in words)” value was “completely prevented” in the assay on HCV JFH-1 (setting [10]); “immediately and gradually caused a decline in HCV levels” in the assay with HCV JFH-1 (setting [11]). For the same compound, the EC50 worked out at 26.5 ± 3.2 nM in assay [3] (HCV ALV-resistant (D320E/Y321N) replicon, Huh7.5 cells, 72 h); 4.7 ± 0.2 nM in [4] (HCV CsA-sensitive (P313A/P318A) replicon, Huh7.5 cells, 72 h); 5.1 ± 0.3 nM in assay [5] (HCV CsA-sensitive (S328P) replicon, Huh7.5 cells, 72 h); 11.3 ± 0.2 nM in [6] (HCV NS3-resistant (R155Q/A156T) replicon, Huh7.5 cells, 72 h); 8.9 ± 0.4 nM in [7] (HCV NS5A-resistant (L31V) replicon, Huh7.5 cells, 72 h); 8.3 ± 0.4 nM in assay [8] (HCV NS5B-resistant (S282T) replicon, Huh7.5 cells, 72 h). For the same compound, the EC50 with HCV wild-type (Con1b) was 9.3 ± 0.4 nM. In addition, the IC50 in [9] (read-out: IC50, inhibition of CypA-HIV-1 capsid interactions) came to 210 ± 10 nM; in assay [9] (Table 2, capsid-His on GST-CypA-coated plates, read-out: IC50, inhibition of capsid binding to CypA) it was 230 ± 10 nM; on CypA-HCV NS5A complex, 180 ± 30 nM; on Human recombinant CypA it was 1.8 ± 0.6 nM.
